Reference: patent US20230257351A1, “SUBSTITUTED N-[…] HAVING P2X4 RECEPTOR ANTAGONISTIC ACTIVITY” (Bayer Aktiengesellschaft, priority 2020, published 2023)
pIC50: −log10 of the molar value.

Target: T1, human P2X4 (Homo sapiens, UniProt Q99571)
T1 construct: expressed in transfected cells
T1 sequence (Q99571 1-388): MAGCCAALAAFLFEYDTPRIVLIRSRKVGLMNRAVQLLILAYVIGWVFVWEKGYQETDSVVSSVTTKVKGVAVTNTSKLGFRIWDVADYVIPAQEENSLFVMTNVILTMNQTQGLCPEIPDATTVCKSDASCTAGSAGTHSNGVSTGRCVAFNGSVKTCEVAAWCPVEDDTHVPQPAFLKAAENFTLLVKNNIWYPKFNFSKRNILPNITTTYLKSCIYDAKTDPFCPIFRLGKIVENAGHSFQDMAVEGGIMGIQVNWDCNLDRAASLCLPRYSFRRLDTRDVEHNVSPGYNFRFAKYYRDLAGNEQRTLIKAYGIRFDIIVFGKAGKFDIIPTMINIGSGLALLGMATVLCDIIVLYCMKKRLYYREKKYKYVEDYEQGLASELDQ
Assay: Human P2X4 HEK Cell FLIPR Assay
Type: cell-based
Details: HEK293 stably expressing human P2X4, agonist Bz-ATP 3 μM (EC80); for pIC50: read-out: Human P2X4 HEK Cells (FLIPR Assay) avg IC50
Procedure: Compounds were tested on a HEK293 cell line stably expressing human P2X4. Cells were cultured on poly-D-lysine-coated 384-well plates at a density of 15,000 cells/well and incubated overnight at 37° C., 5% CO2. P2X4 function was assessed by measuring intracellular calcium fluxes caused by Benzoylbenzoyl-ATP (Bz-ATP) using the calcium-chelating dye Fluo8-AM (Molecular Devices) with the Fluorescent Imaging Plate Reader Tetra (FLIPR^Tetra; Molecular Devices CA). On the day of the assay, the medium was removed and the cells were incubated for 30 min at 37° C. and 5% CO2 in 30 μl of dye buffer (Hank's balanced salt solution, 10 mM HEPES, 1.8 mM CaCl2, 1 mM MgCl2, 2 mM probenecid, 5 mM D-glucose monohydrate, 5 μM Fluo8-AM, pH=7.4). Compounds diluted in probenecid buffer (Hank's balanced salt solution, 10 mM HEPES, 1.8 mM CaCl2, 1 mM MgCl2, 2 mM probenecid, 5 mM D-glucose monohydrate, pH=7.4) at ten concentrations ranging from 25 μM to 1 nM (final concentration) were dispensed and incubated for 30 min at room temperature. […] The final assay volume was 50 μl and final DMSO concentration was 0.5%.
The fluorescence intensity reflecting intracellular calcium changes was recorded before and after Bz-ATP addition, at an excitation and emission wavelengths of 470-495 nm and 515-575 nm respectively.
The compounds were tested in triplicates and fluorescence intensity raw data normalized to the agonist control and fitted to the four-parameter logistic equation:
Y=Bottom+(Top−Bottom)/(1+10^((Log IC50−X)*HillSlope))
Assay plate acceptance was based on the signal window (S/B)[…] and the reference compound pIC50 within ±3σ the mean of historic pIC50 of the compound. Failure to meet two of the three criteria determined exclusion of the plate's results.

Human P2X4 HEK Cells (FLIPR Assay) avg Efficacy | pIC50 | SMILES
97% | 6.07 | CC(=O)N(c1cc(NC(=O)Cc2cccc(C(F)(F)F)c2Cl)ccn1)c1cccc(F)c1F [Example 121, N-(4-{2-[2-chloro-3-(trifluoromethyl)phenyl]acetamido}pyridin-2-yl)-N-(2,3-difluorophenyl)acetamide]
95% | 6.45 | CC(=O)N(c1cc(NC(=O)Cc2ccccc2Cl)ccn1)c1cccc(F)c1F [Example 122, N-{4-[2-(2-chlorophenyl)acetamido]pyridin-2-yl}-N-(2,3-difluorophenyl)acetamide]
94% | 6.54 | CC(=O)N(c1cc(NC(=O)Cc2cccc(F)c2Cl)ccn1)c1cccc(F)c1F [Example 124, N-{4-[2-(2-chloro-3-fluorophenyl)acetamido]pyridin-2-yl}-N-(2,3-difluorophenyl)acetamide]
95% | 6.24 | CC(=O)N(c1cc(NC(=O)Cc2c(Cl)cccc2Cl)ccn1)c1cccc(F)c1F [Example 125, N-{4-[2-(2,6-dichlorophenyl)acetamido]pyridin-2-yl}-N-(2,3-difluorophenyl)acetamide]
99% | 6.30 | CC(=O)N(c1cccc(Cl)c1)c1cc(NC(=O)Cc2c(Cl)cccc2Cl)ccn1 [Example 134, N-(3-chlorophenyl)-N-{4-[2-(2,6-dichlorophenyl)acetamido]pyridin-2-yl}acetamide]
94% | 6.51 | CC(=O)N(c1cc(F)cc(Cl)c1)c1cc(NC(=O)Cc2ccccc2Cl)ccn1 [Example 136, N-(3-chloro-5-fluorophenyl)-N-{4-[2-(2-chlorophenyl)acetamido]pyridin-2-yl}acetamide]
104% | 6.54 | CC(=O)N(c1cc(F)cc(Cl)c1)c1cc(NC(=O)Cc2ccc(F)cc2Cl)ccn1 [Example 137, N-(3-chloro-5-fluorophenyl)-N-{4-[2-(2-chloro-4-fluorophenyl)acetamido]pyridin-2-yl)acetamide]
96% | 6.50 | CC(=O)N(c1cc(F)cc(Cl)c1)c1cc(NC(=O)Cc2cccc(F)c2Cl)ccn1 [Example 138, N-(3-chloro-5-fluorophenyl)-N-{4-[2-(2-chloro-3-fluorophenyl)acetamido]pyridin-2-yl}acetamide]
100% | 6.45 | CC(=O)N(c1cc(F)cc(Cl)c1)c1cc(NC(=O)Cc2c(Cl)cccc2Cl)ccn1 [Example 139, N-(3-chloro-5-fluorophenyl)-N-{4-[2-(2,6-dichlorophenyl)acetamido]pyridin-2-yl}acetamide]
105% | 6.57 | CC(=O)N(c1cc(F)cc(Cl)c1)c1cc(NC(=O)Cc2c(F)cccc2Cl)ccn1 [Example 140, N-(3-chloro-5-fluorophenyl)-N-{4-[2-(2-chloro-6-fluorophenyl)acetamido]pyridin-2-yl)acetamide]
98% | 6.63 | CC(=O)N(c1cc(F)cc(C#N)c1)c1cc(NC(=O)Cc2ccccc2Cl)ccn1 [Example 145, N-{4-[2-(2-Chlorphenyl)acetamido]pyridin-2-yl}-N-(3-cyan-5-fluorphenyl)acetamide]
103% | 6.47 | CC(=O)N(c1cc(F)cc(C#N)c1)c1cc(NC(=O)Cc2c(Cl)cccc2Cl)ccn1 [Example 146, N-(3-Cyan-5-fluorphenyl)-N-{4-[2-(2,6-dichlorphenyl)acetamido]pyridin-2-yl}acetamide]
97% | 6.42 | CC(=O)N(c1cc(F)cc(C#N)c1)c1cc(NC(=O)Cc2cccc(F)c2Cl)ccn1 [Example 147, N-{4-[2-(2-Chlor-3-fluorphenyl)acetamido]pyridin-2-yl}-N-(3-cyan-5-fluorphenyl)acetamide]
96% | 6.36 | CC(=O)N(c1cc(F)cc(C#N)c1)c1cc(NC(=O)Cc2c(F)cccc2Cl)ccn1 [Example 148, N-{4-[2-(2-Chlor-6-fluorphenyl)acetamido]pyridin-2-yl}-N-(3-cyan-5-fluorphenyl)acetamide]
100% | 6.35 | CC(=O)N(c1cc(F)cc(C#N)c1)c1cc(NC(=O)Cc2ccc(F)cc2Cl)ccn1 [Example 149, N-{4-[2-(2-Chlor-4-fluorphenyl)acetamido]pyridin-2-yl}-N-(3-cyan-5-fluorphenyl)acetamide]
102% | 6.53 | CC(=O)N(c1cc(NC(=O)Cc2ccccc2Cl)ccn1)c1ccc(F)cc1Cl [Example 150, N-(2-Chlor-4-fluorphenyl)-N-{4-[2-(2-chlorphenyl)acetamido]pyridin-2-yl}acetamide]
104% | 6.45 | CC(=O)N(c1cc(NC(=O)Cc2ccc(F)cc2Cl)ccn1)c1ccc(F)cc1Cl [Example 151, N-(2-Chlor-4-fluorphenyl)-N-{4-[2-(2-chlor-4-fluorphenyl)acetamido]pyridin-2-yl}acetamide]
104% | 6.36 | CC(=O)N(c1cc(NC(=O)Cc2c(Cl)cccc2Cl)ccn1)c1ccc(F)cc1Cl [Example 152, N-(2-Chlor-4-fluorphenyl)-N-{4-[2-(2,6-dichlorphenyl)acetamido]pyridin-2-yl}acetamide]
102% | 6.32 | CC(=O)N(c1cc(NC(=O)Cc2c(F)cccc2Cl)ccn1)c1ccc(F)cc1Cl [Example 153, N-(2-Chlor-4-fluorphenyl)-N-{4-[2-(2-chlor-6-fluorphenyl)acetamido]pyridin-2-yl}acetamide]
101% | 6.29 | CC(=O)N(c1cc(NC(=O)Cc2cccc(F)c2Cl)ccn1)c1ccc(F)cc1Cl [Example 154, N-(2-Chlor-4-fluorphenyl)-N-{4-[2-(2-chlor-3-fluorphenyl)acetamido]pyridin-2-yl}acetamide]
100% | 6.47 | CC(=O)N(c1ccc(S(C)(=O)=O)c(Cl)c1)c1cc(NC(=O)Cc2c(Cl)cccc2Cl)ccn1 [Example 155, N-[3-Chlor-4-(methylsulfonyl)phenyl]-N-{4-[2-(2,6-dichlorphenyl)acetamido]pyridin-2-yl)acetamide]
96% | 6.29 | CC(=O)N(c1ccc(S(C)(=O)=O)c(Cl)c1)c1cc(NC(=O)Cc2cccc(F)c2Cl)ccn1 [Example 156, N-{4-[2-(2-Chlor-3-fluorphenyl)acetamido]pyridin-2-yl}-N-[3-chlor-4-(methylsulfonyl)phenyl]acetamide]
97% | 6.19 | CC(=O)N(c1ccc(S(C)(=O)=O)c(Cl)c1)c1cc(NC(=O)Cc2ccccc2Cl)ccn1 [Example 157, N-[3-Chlor-4-(methylsulfonyl)phenyl]-N-{4-[2-(2-chlorphenyl)acetamido]pyridin-2-yl}acetamide]
97% | 6.19 | CC(=O)N(c1ccc(S(C)(=O)=O)c(Cl)c1)c1cc(NC(=O)Cc2c(F)cccc2Cl)ccn1 [Example 158, N-{4-[2-(2-Chlor-6-fluorphenyl)acetamido]pyridin-2-yl}-N-[3-chlor-4-(methylsulfonyl)phenyl]acetamide]
99% | 6.02 | CC(=O)N(c1ccc(S(C)(=O)=O)c(Cl)c1)c1cc(NC(=O)Cc2ccc(F)cc2Cl)ccn1 [Example 159, N-{4-[2-(2-Chlor-4-fluorphenyl)acetamido]pyridin-2-yl}-N-[3-chlor-4-(methylsulfonyl)phenyl]acetamide]
101% | 6.42 | COc1cc(F)cc(N(C(C)=O)c2cc(NC(=O)Cc3cccc(F)c3Cl)ccn2)c1 [Example 160, N-{4-[2-(2-Chlor-3-fluorphenyl)acetamido]pyridin-2-yl}-N-(3-fluor-5-methoxyphenyl)acetamide]
